The text below walks through data of US8877933B2, “Thermodynamically stable form of a tosylate salt” (Bayer Intellectual Property GmbH, priority 2004, dated 2014).

This series in a line: Thermodynamic and storage stability of the crystal forms of the compound of the formula (I). Type of series: physicochemical. Particulars: for thermodynamic stability of the crystal form: room temperature.

As for `CNC(=O)c1cc(Oc2ccc(NC(=O)Nc3ccc(Cl)c(C(F)(F)F)c3)cc2)ccn1.Cc1ccc(S(=O)(=O)O)cc1` [polymorph II, 4-{4-[({[4-Chloro-3-(trifluoromethyl)phenyl]amino}carbonyl)amino]phenoxy}-N-methylpyridine-2-carboxamide tosylate in the polymorph II], the “thermodynamic stability of the crystal form” value is “metastable”. As to `CNC(=O)c1cc(Oc2ccc(NC(=O)Nc3ccc(Cl)c(C(F)(F)F)c3)cc2)ccn1.Cc1ccc(S(=O)(=O)O)cc1` [polymorph I, 4-{4-[({[4-chloro-3-(trifluoromethyl)phenyl]amino}carbonyl)-amino]phenoxy}-N-methylpyridine-2-carboxamide tosylate in the polymorph I], the “thermodynamic stability of the crystal form” value is reported as “thermodynamically stable at room temperature”. In addition, for the setting “after processing via suspensions”, the storage stability result is recorded as “storage-stable even after processing via suspensions”.
